# Data published in patent publication US5593970A, “Heterocyclic anthracycline analogs” (priority 1994, dated 1997).
# “And” between values parts separate entries of the source, which are not always exact repeats. Identical values can stand only once.
# System: P388/ADR
# Assay: NCI sulforhodamine B assay
# Type: cell-based, mouse
# Protocol: These assays were carried out at the Developmental Therapeutics Program, Division of Cancer Treatment, National Cancer Institute (Bethesda, Md., U.S.A.). The method consists of incubating varying concentrations of the drug with an inoculum of cells for two days. […] The 57 cell lines included two mouse leukemia lines (P388 parental and adriamycin resistant) and […] human cell lines.
# It should be noted that the first two parameters (GI50 and TGI) relate to antiproliferation effects while the third one (LC50) indicates true cytotoxicity. A value of -4 or greater is considered to denote resistance (inactivity).
structure (smiles),measurement,setting,value
"COC(=O)C1CC2=C(C(=O)c3c(cc4ccccc4c3O)C2=O)C(O[C@H]2C[C@H](NC(=O)C(F)(F)F)[C@H](O)[C@H](C)O2)O1 (mixture of isomers) [BCH-242, (1'S,1R,3S) and (1'S, 1S,3R)-Methyl[11-hydroxy-1-2',3',6'-trideoxy-3-trifluroacetamido-L-lyxohexopyranose)-5,12-dioxo-3,4,5,12-tetrahydroanthraceno[2,3-c]pyran-3-yl]formate]",Log10 LC50,2880 min,> -4.00 log molar
same,CC50,"Mus musculus, 48 h, read-out: Log10 LC50, P388/ADR (converted)",69200 nM
same,GI50,"Mus musculus, read-out: Log10 GI50 (converted)",2340 nM and 324 nM
